Earlier results, collected in patent publication US6994864B2, “Composition containing 7-hydroxy DHEA and/or 7-keto DHEA and at least a carotenoid” (L'Oreal, priority 2000, dated 2006).

Experiments:
skin of rats = details: on rats

C[C@]12CC[C@H](O)CC1=C[C@@H](O)[C@@H]1[C@@H]2CC[C@]2(C)C(=O)CC[C@@H]12 [7α-hydroxy-DHEA]
proliferation of the fibroblasts (fibroblasts): increase | elastin and collagen content of the skin (skin of rats): increased | thickness of the dermis (skin of rats): increased | viability of the human keratinocytes (human keratinocytes): increase
